We go through two molecules from patent US20220031712A1, “PREPARATION OF A PHARMACEUTICAL COMPOSITION OF OLODATEROL AND BUDESONIDE” (priority 2020, published 2022).

Where a name gives a salt, the structure may show the parent alone.

A short description of the data set: Thermal stability of Samples 1-4 at 60° C. (HPLC content and impurity detection). The class given is physicochemical. As to the method:
The thermal stability of samples 1˜4 of example 1 at 60° C. is provided below:
Impurity detection method: • Mobile phase A: accurately weigh 3.17 g of sodium dihydrogen phosphate, add 1 L of pure water to dissolve, adjust the pH of the solution to 3.20 with phosphoric acid. Mobile Phase B: Acetonitrile. • Instrument ID: HPLC. • Column ID: YMC-Triart C18 250*4.6 5 μm. • Detection wavelength: 230 nm. • Flow rate: 1.0 mL/min. • Running time: 35 min.

With `COc1ccc(CC(C)(C)NC[C@H](O)c2cc(O)cc3c2OCC(=O)N3)cc1` [OH, Olodaterol hydrochloride], the “stability of OH in the formulation” value (at pH 5.5 and pH 4.0, pH adjusted with citric acid) was “relatively stable”.
As for `CCCC1O[C@@H]2C[C@H]3[C@@H]4CCC5=CC(=O)C=C[C@]5(C)[C@H]4[C@@H](O)C[C@]3(C)[C@]2(C(=O)CO)O1` (stereo partly drawn) [BD, 11β,21-dihydroxy-16α,17α-(butylidenebis(oxy))pregna-1,4-diene-3,20-dione], the “stability of BD in the formulation” value (at pH 4.0 and 4.5, pH adjusted with citric acid) is listed as “relatively stable”.
